Source: ChEMBL document CHEMBL5352478, “Novel pyridine-containing histone deacetylase inhibitors strongly arrest proliferation, induce apoptosis and modulate miRNAs in cancer cells” (Eur J Med Chem, 2023)

Assays:
[1] = system: U-937; test: Induction of cell cycle arrest in human U-937 cells assessed as accumulation of cells in G1 phase at 5 uM for 48 hrs by PI staining based flow cytometric analysis; assay type: functional
[2] = system: HCT-116; test: cells; assay type: functional, cell-based; settings: Homo sapiens, HCT-116, 72 h
[3] = system: A549; test: cells; assay type: functional, cell-based; settings: Homo sapiens, A549, 72 h
[4] = system: K562; test: cells; assay type: functional, cell-based; settings: Homo sapiens, K562, 72 h

IC50 [2]: 1.06 µM | IC50 [3]: 2.25 µM | IC50 [4]: 0.57 µM
Compound: Nc1ccccc1NC(=O)c1ccc(CNC(=O)OCc2cccnc2)cc1 [ENTINOSTAT]
Activity [1]: 70%
